Values joined by “and” are separate entries in the source; they are usually repeats but may differ in a detail not shown here. Equal values may be shown once.
Settings: Liquid, Transpiration method

N#CCCO [3-hydroxypropanenitrile]
Settings	vapor or sublimation pressure
306.3 K	0.01564 kPa
311.3 K	0.02299 kPa
314.3 K	0.02755 kPa
317.3 K	0.03639 kPa
318.6 K	0.03759 kPa
321.4 K	0.04504 kPa
321.7 K	0.04955 kPa
323.3 K	0.05382 kPa
325.4 K	0.06297 kPa
326.3 K	0.06361 kPa
328.6 K	0.07507 kPa
331.4 K	0.08563 kPa and 0.09147 kPa
333.4 K	0.1054 kPa
336.3 K	0.1286 kPa
336.4 K	0.1232 kPa
338.5 K	0.1442 kPa
340.4 K	0.1598 kPa
341.5 K	0.1816 kPa
343.4 K	0.2025 kPa
346.6 K	0.2592 kPa
351.7 K	0.3404 kPa
356.8 K	0.4425 kPa
361.8 K	0.5765 kPa

Source: the NIST ThermoML archive (doi:10.1016/j.jct.2007.03.011)
